“Also recorded” adds a separate entry of the source.
Key:
Format in all cases: cell-based
[1] = tested on: MDM2 turnover in LS8107 cells; assay: Turnover (degradation) of MDM2 in LS8107 cells after CDK4 inhibition; details: LS8107 cells with knockdown of Enigma, addition of PD0332991
Procedure: To determine if Enigma affects MDM2 protein levels post-translationally, the turnover of MDM2 was analyzed. […] To determine whether HAUSP and Enigma are the important regulators of MDM2 protein levels in response to treatment with a CDK4 inhibitor, concomitant knockdown of HAUSP and Enigma was performed.

[2] = tested on: non-responder cell line LS8107; assay: Senescence of LS8107 cells after CDK4 inhibition (SA-β-gal positive cells, ATRX foci)
[3] = tested on: MDM2 protein levels in LS8107 cells; assay: MDM2 protein levels in LS8107 cells after CDK4 inhibition
Text: The short hairpins used are as follows: TRCN0000161061: […] (SEQ ID NO: 4); and TRCN0000166638 (“EN638”): […] (SEQ ID NO: 5).

[4] = LS8107 cells with Enigma knocked down (shRNA), treated with PD0332991
[5] = non-responder LS8107 cells, PD0332991 alone (no knockdown)

For CC(=O)c1c(C)c2cnc(Nc3ccc(N4CCNCC4)cn3)nc2n(C2CCCC2)c1=O [PD0332991], the “turnover of MDM2” value [1] was “increased the turnover of MDM2”, the senescence [2, 4] was “the cells entered senescence” and the “senescence as determined by the number of SA-β-gal positive cells” value [2, 5] was “do not undergo senescence; also recorded: insufficient to induce senescence”. For the same molecule, the MDM2 protein levels [3, 4] was “reduction in MDM2 protein levels” and the MDM2 protein levels [3, 5] was “do not reduce their MDM2 protein levels”.
